{"source": "patent US11149008B2", "about": "“Sulfamide derivatives and preparation method and use thereof” (HitGen Ltd., priority 2015, dated 2021)", "biological_target": "HDAC 1 (Homo sapiens, UniProt Q13547)", "sequence (Q13547 whole entry, species assumed)": "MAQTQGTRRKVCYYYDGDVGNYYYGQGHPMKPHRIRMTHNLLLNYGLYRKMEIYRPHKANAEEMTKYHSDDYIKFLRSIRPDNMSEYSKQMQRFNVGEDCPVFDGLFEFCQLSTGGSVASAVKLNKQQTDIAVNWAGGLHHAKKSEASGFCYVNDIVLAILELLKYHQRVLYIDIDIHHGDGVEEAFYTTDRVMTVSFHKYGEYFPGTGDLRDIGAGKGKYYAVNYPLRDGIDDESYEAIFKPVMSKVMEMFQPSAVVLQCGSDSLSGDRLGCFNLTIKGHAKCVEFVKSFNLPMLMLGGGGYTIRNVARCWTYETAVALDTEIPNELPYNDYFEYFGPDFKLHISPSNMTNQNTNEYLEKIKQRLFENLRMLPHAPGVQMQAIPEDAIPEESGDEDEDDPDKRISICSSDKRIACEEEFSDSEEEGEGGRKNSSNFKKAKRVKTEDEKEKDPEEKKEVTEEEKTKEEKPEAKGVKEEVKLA", "experiment": "Enzyme activity detection of histone deacetylase 1 (fluorogenic substrate deacetylation)", "type": "biochemical", "conditions": "0.28 ng/μL HDAC 1, 10 μM substrate; IC50 class", "excerpt": "During the deacetylation detection of a substrate, the HDAC inhibition activity of the compound of the present invention was detected.\nC: Enzyme Activity Detection of Histone Deacetylase 1\nAcetyl on the substrate was removed by the HDAC 1, so that the substrate was activated, and the developing liquid added subsequently could act on the substrate to release the fluorescent group. The size of the fluorescence signal reflected the activity of the HDAC 1. The IC50 detection method for this enzyme was disclosed in Chuping Xu, Elisabetta Soragni Improved Histone Deacetylase Inhibitors as Therapeutics for the Neurdegenerative Disease Friedreich's Ataxia: A New Synthetic Route. The total reaction system (100 μL/well) contained 0.28 ng/μL of HDAC 1, 10 μM of the substrate and the compound in different concentrations. The fluorescence signal was detected online at Ex/Em=360/460. The inhibition effect of the compound was determined from the obtained data, a concentration response curve was obtained by using the inhibition effect and the concentration of the compound, and the value of IC50 was fitted according to a four-parameter model.\nThe activities of the compounds prepared in the embodiments against the histone deacetylases 1, 3 and 6 (i.e., HDAC 1, HDAC 3 and HDAC 6) were detected by the above methods, and the test results were shown in Table 2, where the measurements of IC50 of the compounds were classified according to the following description: […]", "data": [{"smiles": "CN1CCN(c2ccc(-c3ccc(S(=O)(=O)N4CC=C(C(=O)NO)CC4)cc3)cc2)CC1", "note": "[Compound 29, N-hydroxyl-1-((4′-(4-methylpiperazinyl)-[1,1′-biphenyl]-4-yl)sulfonyl)-1,2,3,6-tetrahydropyridine-4-formamide]", "values": [{"measurement": "IC50", "result": "< 100", "unit": "nM"}]}]}
